Source: ChEMBL document CHEMBL5331133, “Discovery of AZD4747, a Potent and Selective Inhibitor of Mutant GTPase KRASG12C with Demonstrable CNS Penetration” (J Med Chem, 2023)

Assays:
[1] = Lipophilicity, logD of compound at 7.4; conditions: octanol/water
[2] = […] stability in rat hepatocyte assessed as intrinsic clearance measured per million of cells; type: ADME, cell-based; conditions: hepatocytes
MDR1 and BCRP = test: (§1) Efflux ratio of apparent permeability in dog MDCK cells transfected with MDR1 and BCRP at 0.1 uM; type: ADME, cell-based, Canis lupus familiaris
[3] = Unbound brain-to-plasma concentration ratio in Wistar Han rat at 2.3 microM/Kg, iv and measured after 4 hrs; type: ADME, organism-based; conditions: read-out: K(p,uu,brain)
[4] = Dissociation constant, pKa of the compound; type: physicochemical
GTPase KRas = GTPase KRas (Homo sapiens, UniProt P01116, G12C)
GTPase KRas, sequence (P01116 whole entry G12C): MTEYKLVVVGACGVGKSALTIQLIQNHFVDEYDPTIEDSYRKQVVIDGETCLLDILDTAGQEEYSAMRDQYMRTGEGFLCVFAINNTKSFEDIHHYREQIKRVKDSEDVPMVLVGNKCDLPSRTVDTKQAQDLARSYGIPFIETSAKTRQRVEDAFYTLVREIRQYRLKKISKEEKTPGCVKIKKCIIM

in vitro = conditions: human, liver microsomes, CLH
Description: (§2) Microsomal stability in human liver microsomes assessed as intrinsic clearance

NCI-H358 = test: Antiproliferative activity against human NCI-H358 cells harboring KRAS G12C mutant cultured as 3D spheroids assessed as reduction in cell proliferation incubated for 3 days by CellTiter-Glo 3D reagent based assay; type: functional; conditions: NCI-H358, 72 h
[5] = as §1; type: ADME, cell-based, Canis lupus familiaris; conditions: mdck, 0.1 µM
[6] = human, microsomes
Description: as §2

SMILES | logD ([1]; pH 7.4, logD) | CLH [2] [µL/min] | efflux ratio at 0.1 µM (MDR1 and BCRP) | Kp uu at 4 h [3] | pKa [4] | IC50 (GTPase KRas) [µM] | microsomal CLint (in vitro) [µL/min/mg] | IC50 (NCI-H358) [µM] | logD ([1]; pH 7.4) | Ratio [5] | CLH [6] [µL/min/mg]
C=CC(=O)N1CCN2Cc3cc(F)c(-c4c(O)cccc4Cl)c(F)c3OC[C@H]2C1.O | 2.8 | 20 | 0.7 | 0.11 | 3.9 | 0.043 | < 7 |  |  |  | 
C=CC(=O)N1CCN2Cc3cc(F)c(-c4c(C)cccc4O)c(F)c3OC[C@H]2C1 | 2.4 | 29 | 1.2 | 0.15 |  | 0.09 | 19 |  |  |  | 
C#Cc1cc(CN2CCN(C(=O)C=C)CC2)cc(F)c1-c1c(O)cccc1Cl | 3.2 | 38 |  |  |  | 13.6 | 18 |  |  |  | 
C=CC(=O)N1CCN(c2nc(=O)n(-c3c(C)ccnc3C(C)C)c3nc(-c4c(O)cccc4F)c(F)cc23)[C@@H](C)C1 [SOTORASIB] | 2.3 | 18 |  | 0.01 |  |  | 36 | 0.001 |  |  | 
C=CC(=O)N1CCN(Cc2cc(F)c(-c3c(O)cccc3Cl)c(F)c2)CC1 | 3.3 | 122 |  |  |  | 7.82 | < 3 |  |  |  | 
C=CC(=O)N1C[C@H]2CCOc3c(Cl)c(-c4c(O)cccc4F)c(F)c4ncnc(c34)N2C[C@H]1C | 3.2 | 41 | 37.2 | 0.06 |  | 0.003 | 26 |  |  |  | 
C=C(F)C(=O)N1CCN(c2nc(OC[C@@H]3CCCN3C)nc3c2CCN(c2cccc4cccc(Cl)c24)C3)C[C@@H]1CC#N [ADAGRASIB] | 3.6 | 12 |  | 0.01 |  |  | 80 | 0.006 |  |  | 
C=CC(=O)N1CCN2Cc3cc(OCCN(C)C)c(-c4c(O)cccc4Cl)c(F)c3OC[C@H]2C1 | 1 | 8 | 12.4 |  |  | 0.11 | 10 |  |  |  | 
C=CC(=O)N1CCN2Cc3ccc(-c4c(C)ccc5[nH]ncc45)c(Cl)c3OCCC2C1 (stereo in doubt; 20) |  | 97 |  |  |  | 4.01 |  |  | 3.3 | 2.1 | > 300
C#Cc1cc2c(c(F)c1-c1c(O)cccc1Cl)OC[C@H]1CN(C(=O)C=C)CCN1C2 | 2.7 | 23 | 1 | 0.05 | 3.9 | 0.019 | 16 |  |  |  | 
C=CC(=O)N1CCN2C(=O)c3cc(OCCOC)c(-c4c(O)cccc4Cl)c(F)c3OC[C@H]2C1 | 2 | 48 |  |  |  | 0.099 | 41 |  |  |  | 
C=CC(=O)N1CCN2Cc3cc(Cl)c(-c4c(O)cccc4Cl)c(F)c3OC[C@H]2C1 | 3.2 | 44 | 0.6 |  |  | 0.029 | 17 |  |  |  | 
C=CC(=O)N1CCN2Cc3cc(C(F)F)c(-c4c(O)cccc4Cl)c(F)c3OC[C@H]2C1 | 3 | 99 |  |  |  | 0.13 | 63 |  |  |  | 
C=CC(=O)N1CCN2C(=O)c3ccc(-c4c(C)ccc5[nH]ncc45)c(Cl)c3OC[C@@H]2C1 | 2.8 | 93 | 1.4 |  |  | 4.3 | 54 |  |  |  | 
C=CC(=O)N1CCN2Cc3cc(F)c(-c4c(O)cccc4F)c(F)c3OC[C@H]2C1 | 2.5 | 18 |  |  |  | 0.279 | 5 |  |  |  | 
C=CC(=O)N1CCN2Cc3cc(F)c(-c4c(O)cccc4F)c(Cl)c3OC[C@H]2C1 | 2.8 | 42 | 1.2 |  |  | 0.149 | 8 |  |  |  | 
C=CC(=O)N1CCN2Cc3ccc(-c4c(C)ccc5[nH]ncc45)c(Cl)c3OC[C@@H]2C1 | 3.5 | 130 | 0.9 | 0.41 |  | 1.31 | > 294 |  |  |  | 
C=CC(=O)N1CCN2Cc3ccc(-c4c(C)ccc5[nH]ncc45)c(Cl)c3OC[C@H]2C1 | 3.2 | 156 | 0.4 | 0.24 |  | 0.332 | 86 |  |  |  | 
C=CC(=O)N1CCN2Cc3cc(OC(F)F)c(-c4c(O)cccc4Cl)c(F)c3OC[C@H]2C1 | 2.7 | 143 |  |  |  | 0.16 | 18 |  |  |  | 
C=CC(=O)N1CCN2Cc3ccc(-c4c(O)cccc4F)c(Cl)c3OC[C@H]2C1 |  | 52 | 0.8 |  |  | 0.231 | 33 |  |  |  | 
C=CC(=O)N1CCN2Cc3cc(C#N)c(-c4c(O)cccc4Cl)c(F)c3OC[C@H]2C1 | 2.5 | 54 | 6.5 |  |  | 0.016 | 13 |  |  |  | 
C=CC(=O)N1CCN2Cc3cc(OC)c(-c4c(O)cccc4Cl)c(F)c3OC[C@H]2C1 | 2.2 | 59 | 1.9 |  |  | 0.074 | 15 |  |  |  | 
C=CC(=O)N1CCN2c3ncnc4cc(-c5c(C)ccc6[nH]ncc56)c(Cl)c(c34)OC[C@@H]2C1 |  | 109 |  |  |  |  | 58 |  |  |  | 
C=CC(=O)N1CCN2Cc3cc(C4CC4)c(-c4c(O)cccc4Cl)c(F)c3OC[C@H]2C1 | 3.2 | 101 |  |  |  | 0.022 | 97 |  |  |  | 
C=CC(=O)N1CCN2Cc3cc(OC4CC4)c(-c4c(O)cccc4Cl)c(F)c3OC[C@H]2C1 | 2.6 | 174 |  |  |  | 0.081 | 25 |  |  |  | 
C=CC(=O)N1CCN2Cc3ccc(-c4c(C)ccc5[nH]ncc45)c(Cl)c3OCCC2C1 (stereo in doubt; 19) | 3.2 | 234 | 1.4 |  |  | 8.29 | 294 |  |  |  | 
